Experimental data from article PMC5430874 (Scientific Reports, 2017).

Experiments:
untagged GPR139(WT) = target: T1, untagged GPR139(WT) (Homo sapiens, UniProt Q6DWJ6); assay: Fluo-4 Ca2+-assay, untagged wild-type GPR139 in HEK293; format: cell-based; settings: untagged WT receptor
T1 construct: expressed in transfected cells; host or cells: HEK293
T1 sequence (Q6DWJ6 1-353): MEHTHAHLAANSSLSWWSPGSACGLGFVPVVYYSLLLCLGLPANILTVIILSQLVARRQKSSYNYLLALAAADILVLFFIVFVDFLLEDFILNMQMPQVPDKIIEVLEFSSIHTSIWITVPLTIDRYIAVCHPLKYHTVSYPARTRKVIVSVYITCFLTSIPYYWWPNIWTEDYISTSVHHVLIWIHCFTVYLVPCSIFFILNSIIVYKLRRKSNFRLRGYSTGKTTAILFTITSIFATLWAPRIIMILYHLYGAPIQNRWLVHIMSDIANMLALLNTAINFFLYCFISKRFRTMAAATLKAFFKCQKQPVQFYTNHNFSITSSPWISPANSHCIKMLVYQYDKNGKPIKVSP
Text: (§1) To study the influence of specific amino acids in the predicted binding pocket on receptor function, the desired mutations were introduced into an N-terminally c-myc-tagged wild type human GPR139 (NM_001002911.3) in the pEGFP-N1 vector (BD Biosciences)[32], [33]. As previously described, these plasmids carry the signal peptide of mGluR5 to promote cell surface expression followed by a c-myc epitope to enable detection of total and surface expression by ELISA, followed by an engineered MluI and NotI site for easy insertion of the receptor of interest. Furthermore, the start-codon in the GPR139 sequence was deleted to ensure c-myc-tagging. […]
(§2) The Ca^2+ measurements were preformed using the Fluo-4 NW Calcium Assay Kit (Invitrogen, Molecular Probes, F36206) as previously described. […] Intracellular calcium changes were recorded as indicated on either a NOVOstar (BMG Labtech) at 37 °C with an excitation filter of 485 nm and an emission filters 520 nm or a FlexStation 3 Benchtop Multi-Mode Microplate Reader (Molecular Devices) at 37 °C with an excitation wavelength of 485 nm and emission of 525 nm.
(§3) All pharmacological data have been analyzed by using Prism 6.0 (GraphPad Software Inc., San Diego). […] Changes in potency (pEC50) and span of myc-GPR139(WT) in comparison to untagged GPR139(WT) was statistically analyzed with a paired t-test and significance was accepted at p < 0.05. […]

GPR139 H264A7x31 = target: T2, GPR139 H264A7x31 (Homo sapiens, UniProt Q6DWJ6, H264A); assay: Fluo-4 Ca2+-assay, GPR139 mutant H264A; format: cell-based
T2 construct: mGluR5 signal peptide (N); expressed in transfected cells; host or cells: HEK293
T2 sequence (Q6DWJ6 2-353 H264A limits assumed): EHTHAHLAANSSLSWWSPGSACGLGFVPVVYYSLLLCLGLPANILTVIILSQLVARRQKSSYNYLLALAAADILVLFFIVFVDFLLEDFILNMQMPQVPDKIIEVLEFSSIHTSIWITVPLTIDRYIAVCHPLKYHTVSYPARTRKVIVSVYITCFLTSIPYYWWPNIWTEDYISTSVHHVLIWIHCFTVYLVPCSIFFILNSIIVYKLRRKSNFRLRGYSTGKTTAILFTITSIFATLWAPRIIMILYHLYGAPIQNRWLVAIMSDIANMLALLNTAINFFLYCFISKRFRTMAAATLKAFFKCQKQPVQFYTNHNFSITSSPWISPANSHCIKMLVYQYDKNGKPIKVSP
Text: as §1, §2, §3

rats = tested on: rats; set-up: method as in PMID 26349500; settings: cited from earlier work

Row | EC50 (untagged GPR139(WT)) [nM] | EC50 (GPR139 H264A7x31; H264A mutant) [nM] | Emax (GPR139 H264A7x31; H264A, normalized to buffer (0%) and 8 µM 1a (100%)) [%] | SMILES | spontaneous locomotion activity (rats)
1 | 772 | 251 | 148 ± 15 | COc1cc(OC)cc(C(=O)NNC(=O)Nc2cccc3ccccc23)c1 [Compound 1a] | 
2 |  |  |  | C[C@@H](NC(=O)CNC(=O)c1cccc(Cl)c1)c1ccccc1 (racemic) [Compound 7c] | decreased spontaneous locomotion activity
